Laboratory results published in patent publication US20170305894A1, “PPAR AGONISTS, COMPOUNDS, PHARMACEUTICAL COMPOSITIONS, AND METHODS OF USE THEREOF” (priority 2014, published 2017).
pEC50: −log10 of the molar value. Where two headings read alike, the source gives them in different places.

Experiments:
PPARdelta = target: T1, PPARdelta (Homo sapiens, UniProt Q03181); assay: NHR Protein Interaction Biosensor assay (PathHunter NHR cell lines, agonist format); type: cell-based
T1 construct: expressed in transfected cells
T1 sequence (Q03181 1-441): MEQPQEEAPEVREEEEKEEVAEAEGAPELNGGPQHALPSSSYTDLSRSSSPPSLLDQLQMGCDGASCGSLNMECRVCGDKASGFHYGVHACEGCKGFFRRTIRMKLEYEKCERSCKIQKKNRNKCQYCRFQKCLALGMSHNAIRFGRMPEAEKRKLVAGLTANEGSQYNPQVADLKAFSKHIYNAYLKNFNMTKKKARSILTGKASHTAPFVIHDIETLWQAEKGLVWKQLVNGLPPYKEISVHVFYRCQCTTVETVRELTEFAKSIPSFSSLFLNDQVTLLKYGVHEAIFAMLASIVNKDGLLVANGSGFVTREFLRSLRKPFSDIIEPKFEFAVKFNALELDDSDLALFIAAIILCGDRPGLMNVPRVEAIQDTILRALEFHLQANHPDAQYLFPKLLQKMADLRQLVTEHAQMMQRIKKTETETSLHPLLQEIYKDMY
Description: (2) Nuclear Hormone Receptor (NHR) Assays
PathHunter NHR cell lines were expanded from freezer stocks according to standard procedures. Cells were seeded in a total volume of 20 μL into white walled, 384-well microplates and incubated at 37° C. for the appropriate time prior to testing. Assay media contained charcoal-dextran filtered serum to reduce the level of hormones present.
For agonist determination, cells were incubated with sample to induce response. Intermediate dilution of sample stocks was performed to generate 5× sample in assay buffer. […] Final assay vehicle concentration was 1%.
Microplates were read following signal generation with a PerkinElmer Envision™ instrument for chemiluminescent signal detection.
Compound activity was analyzed using CBIS data analysis suite (ChemInnovation, CA). For agonist mode assays, percentage activity was calculated using the following formula:
% Activity=100%×(mean RLU of test sample−mean RLU of vehicle control)/(mean MAX control ligand−mean RLU of vehicle control).

Human PPARδ = target: T2, Human PPARδ (Homo sapiens, UniProt Q03181); assay: PPARδ activity screen: GAL4-PPARδ LBD luciferase transactivation in CV-1 cells; type: cell-based
T2 construct: (PPARδ amino acid 128 to C-terminus); expressed in transfected cells; host or cells: CV-1 cells
T2 sequence (Q03181 128-441 limits assumed): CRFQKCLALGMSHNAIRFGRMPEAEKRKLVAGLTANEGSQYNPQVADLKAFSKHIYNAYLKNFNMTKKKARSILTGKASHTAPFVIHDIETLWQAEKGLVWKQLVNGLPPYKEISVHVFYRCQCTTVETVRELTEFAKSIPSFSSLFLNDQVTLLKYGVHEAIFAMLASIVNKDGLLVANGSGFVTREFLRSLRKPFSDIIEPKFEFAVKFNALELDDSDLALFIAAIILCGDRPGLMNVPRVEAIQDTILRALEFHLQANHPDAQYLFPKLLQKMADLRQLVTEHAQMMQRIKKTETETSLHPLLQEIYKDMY
Description: CV-1 cells were grown in DMEM+10% charcoal stripped FCS. Cells were seeded into 384-well plates the day before transfection to give a confluency of 50-80% at transfection. A total of […] containing 0.64 micrograms pCMX-PPARDelta LBD, 0.1 micrograms pCMXβGal, 0.08 micrograms pGLMH2004 reporter and 0.02 micrograms pCMX empty vector was transfected per well using FuGene transfection reagent according to the manufacturer's instructions (Roche). Cells were allowed to express protein for 48 h followed by addition of compound.
Human PPARδ was used to PCR amplify the PPARδ LBD. […] Ensuing fusions were verified by sequencing.
Compounds: All compounds were dissolved in DMSO and diluted 1:1000 upon addition to the cells. Compounds were tested in quadruple in concentrations ranging from 0.001 to 100 μM. Cells were treated with compound for 24 h followed by luciferase assay. Each compound was tested in at least two separate experiments.
The activity of a compound is calculated as fold induction compared to an untreated sample. For each compound the efficacy (maximal activity) is given as a relative activity compared to GW501516, a PPARδ agonist. […] EC50 values were calculated via non-linear regression using GraphPad PRISM (GraphPad Software, San Diego, Calif.).

[1] = PathHunter NHR cells, agonist format, read-out: NHR Protein Interaction Biosenor assay, PPARdelta EC50
[2] = CV-1 cells, GAL4-PPARδ LBD luciferase reporter, compound for 24 h, read-out: PPAR delta transactivation EC50

| Structure (SMILES) | pEC50 (PPARdelta; [1]) | pEC50 (Human PPARδ; [2]) | pEC50 (PPARdelta) | pEC50 (Human PPARδ) |
| --- | --- | --- | --- | --- |
| Cc1ccc(-c2ccc(-c3ncc(C)n3Cc3ccccc3OCCCCCC(=O)O)cc2)o1 [Compound 8b, 6-(2-((5-methyl-2-(4-(5-methylfuran-2-yl)phenyl)-1H-imidazol-1-yl)methyl)phenoxy)hexanoic acid] | 9.24 | 8.92 | – | – |
| Cc1cnc(-c2ccc(C#CC(F)(F)F)cc2)n1Cc1ccccc1OCCCCCC(=O)O [Compound 8g, 6-(2-((5-methyl-2-(4-(3,3,3-trifluoroprop-1-yn-1-yl)phenyl)-1H-imidazol-1-yl)methyl)phenoxy)hexanoic acid] | 9.19 | 8.08 | – | – |
| Cc1cn(Cc2ccccc2OCCCCCC(=O)O)c(-c2ccc(-c3ccco3)cc2)n1 [Compound 8i, 6-(2-((2-(4-(furan-2-yl)phenyl)-4-methyl-1H-imidazol-1-yl)methyl)phenoxy) hexanoic acid] | – | 7.80 | 7.87 | – |
| Cc1cnc(-c2ccc(-c3ccco3)cc2)n1Cc1ccccc1OCCCCCC(=O)O [Compound 8a, 6-(2-((2-(4-(furan-2-yl)phenyl)-5-methyl-1H-imidazol-1-yl)methyl)phenoxy) hexanoic acid] | > 9.29 | 9.05 | – | – |
| C/C(=C\COc1ccccc1Cc1c(C)noc1-c1ccc(-c2ccco2)cc1)CCC(=O)O [Compound 8o, (E)-6-(2-((5-(4-(furan-2-yl)phenyl)-3-methylisoxazol-4-yl)methyl)phenoxy)-4-methylhex-4-enoic acid] | – | – | 8.04 | 8.54 |
| Cc1cn(Cc2ccccc2OCCCCCC(=O)O)c(-c2ccc(-c3ccc(C)o3)cc2)n1 [Compound 8j, 6-(2-((4-methyl-2-(4-(5-methylfuran-2-yl)phenyl)-1H-imidazol-1-yl)methyl)phenoxy)hexanoic acid] | 8.30 | 7.25 | – | – |
| C/C(=C\COc1ccccc1Cn1c(C)cnc1-c1ccc(-c2ccco2)cc1)CCC(=O)O [Compound 8e, (E)-6-(2-((2-(4-(furan-2-yl)phenyl)-5-methyl-1H-imidazol-1-yl)methyl)phenoxy)-4-methylhex-4-enoic acid] | 9.10 | 9.00 | – | – |
| Cn1cc(Cc2ccccc2OCCCCCC(=O)O)c(-c2ccc(-c3ccco3)cc2)n1 [Compound 8n, 6-(2-((3-(4-(furan-2-yl)phenyl)-1-methyl-1H-pyrazol-4-yl)methyl)phenoxy)hexanoic acid] | – | – | 7.70 | 6.93 |
| Cc1cn(Cc2ccccc2OCCCCC(C)(C)C(=O)O)c(-c2ccc(-c3ccco3)cc2)n1 [Compound 8k, 6-(2-((2-(4-(furan-2-yl)phenyl)-4-methyl-1H-imidazol-1-yl)methyl)phenoxy)-2,2-dimethylhexanoic acid] | 7.78 | 7.24 | – | – |
| Cc1nc(-c2ccc(-c3ccco3)cc2)c(Cc2ccccc2OCCCCCC(=O)O)s1 [Compound 8m, 6-(2-((4-(4-(furan-2-yl)phenyl)-2-methylthiazol-5-yl)methyl)phenoxy) hexanoic acid] | – | – | 8.90 | 7.74 |
| Cc1cnc(-c2ccc(-c3ccco3)cc2)n1Cc1ccccc1OCCCCC(C)(C)C(=O)O [Compound 8d, 6-(2-((2-(4-(furan-2-yl)phenyl)-5-methyl-1H-imidazol-1-yl)methyl)phenoxy)-2,2-dimethylhexanoic acid] | 9.08 | 8.35 | – | – |
| C/C(=C\COc1ccccc1Cn1c(C)cnc1-c1ccc(Cl)nc1)CCC(=O)O [Compound 8r, (E)-6-(2-((2-(6-chloropyridin-3-yl)-5-methyl-1H-imidazol-1-yl)methyl)phenoxy)-4-methylhex-4-enoic acid] | – | 8.26 | – | – |
| Cc1cnc(-c2ccc(-c3ccco3)cc2)n1Cc1ccccc1CCCCCCC(=O)O [Compound 8q, 7-(2-((2-(4-(furan-2-yl)phenyl)-5-methyl-1H-imidazol-1-yl)methyl)phenyl)heptanoic acid] | 7.89 | 8.51 | – | – |
| C/C(=C\COc1ccccc1Cc1c(C)n[nH]c1-c1ccc(-c2ccco2)cc1)CCC(=O)O [Compound 8p, (E)-6-(2-((5-(4-(furan-2-yl)phenyl)-3-methyl-1H-pyrazol-4-yl)methyl)phenoxy)-4-methylhex-4-enoic acid] | – | – | 8.30 | 8.92 |
| O=C(O)CCCCCOc1ccccc1Cn1ccnc1-c1ccc(-c2ccco2)cc1 [Compound 8l, 6-(2-((2-(4-(furan-2-yl)phenyl)-1H-imidazol-1-yl)methyl)phenoxy)hexanoic acid] | 8.89 | 8.02 | – | – |
| Cc1cnc(-c2ccc(OC(F)(F)F)cc2)n1Cc1ccccc1OCCCCCC(=O)O [Compound 8h, 6-(2-((5-methyl-2-(4-(trifluoromethoxy)phenyl)-1H-imidazol-1-yl)methyl)phenoxy)hexanoic acid] | 8.83 | 9.03 | – | – |
